Experimental data reported in patent US12643891B2, “SPAK/OSR inhibitors and methods of using same” (YALE UNIVERSITY, priority 2019, dated 2026).

Tests used:
[1] = system: GMB intracranial xenograft; assay: Human GBM intracranial xenograft mouse model; assay type: in vivo
Source text: FIGS. 32A-32B illustrate that (6a) reduces tumor growth in vivo in a human GMB intracranial xenograft mouse model. FIG. 32A: Schematic of the human GMB intracranial xenograft. FIG. 32B: Tumor growth profiles at two (6a) doses.

[2] = system: primary GBM cells; assay: Nanogrooved pattern glioblastoma cell migration assay; assay type: cell-based, human; conditions: in vitro
Description: Cell culture: All primary cell lines were derived from intraoperative tissue samples from patients treated surgically for newly diagnosed glioblastoma multiforme without prior treatment. Primary cells were cultured in Dulbecco's Modified Eagle Medium: Nutrient Mixture F-12, B27 serum free supplement (Gibco), 20 ng/mL epidermal growth factor (EGF), and 20 ng/ml fibroblast-derived growth factor (FGF).
Nanogrooved pattern cell migration assay: Migration of glioma cells was quantified using a novel directional migration assay using nano-ridges/grooves of 400 nm in groove width, 400 nm in ridge width, and 500 nm in depth, constructed of transparent poly(urethane acrylate) (PUA), and fabricated using UV-assisted capillary lithography (Kim & Eberwine, 2010, Anal. Bioanl. Chem. 397:3173-3178). Cells were cultured on glass covered with a nanogrooved pattern substratum, which was previously glued onto the bottom surface of the custom-made Mat-tek dish (P35G-20-C). […] Cell migration was quantified using time-lapse microscopy using a motorized inverted microscope (Olympus IX81) equipped with a Cascade 512B II CCD camera and temperature and gas controlling environmental chamber. Phase-contrast and epi-fluorescent cell images were automatically recorded under 4*1.6× objective using the Slidebook 4.1 (Intelligent Imaging Innovations, Denver, CO) for 10 hours at 10 minute intervals. […]

[3] = system: melanoma cells; assay: Melanoma cell migration in vitro; assay type: cell-based; conditions: FIG. 35
[4] = system: GBM cells; assay: Cell cycle FACS analysis of GBM cell lines; assay type: cell-based, human; conditions: 2 μM
Description: FIG. 38A: Example cell cycle FACS data for 612 cells treated with 2 μM of (6a). FIG. 38B: Cell cycle analysis of GBM cell lines treated with 2 μM of (6a).

[5] = target: T1, SPAK (Homo sapiens, UniProt Q9UEW8); assay: In vitro SPAK ELISA assay monitoring NKCC1 phosphorylation (T^PNKCC1 antibody); assay type: biochemical; conditions: screening platform, FIG. 21; read-out: in vitro IC50
T1 construct: GST (N, cleaved yes); made in house; host or cells: E. coli EcAR7 with Sep-OTS

[6] = system: PARP-1; assay: PARP-1 Western blot in GBM cells; assay type: cell-based, human; conditions: after 24 hs
Description: (§1) FIGS. 40A-40C depict that SPAK/OSR1 inhibition sensitizes GBM to radiation and decreases expression of DNA damage response genes. FIG. 40A: GBM cells were pre-treated for 24 hs with 1 μM (6a) or vehicle control and irradiated. After 72 hs, cells were re-plated to study clonogenicity. […] FIG. 40C: Expression of DNA damage response genes by RNAseq in cells treated with (6a) for 6 hs (dashed line delimits p<0.05).

[7] = system: primary human astrocytes; assay: Migration of primary human astrocytes; assay type: cell-based
[8] = system: GBM cells; assay: Clonogenicity of GBM cells after (6a) pre-treatment and irradiation; assay type: cell-based, human; conditions: 24 hs pre-treatment 1 μM, irradiated; 15 days after treatment
Description: as §1

[9] = system: pancreatic cancer cells; assay: Pancreatic cancer cell migration in vitro; assay type: cell-based; conditions: FIG. 36
[10] = Formulation/tolerance test, intracranial, healthy tumor free mice; assay type: in vivo; conditions: 100 μM in DMSO/PEG formulation, intracranially
Description: FIG. 41 depicts treating healthy, tumor free, mice (ms_#) intracranially with a DMSO/PEG formulation containing vehicle or 100 μM (6a).

[11] = system: GBM cell lines; assay: Annexin V apoptosis assay in GBM cell lines; assay type: cell-based, human; conditions: 1 μM, four GBM cell lines
Description: FIG. 37 depicts annexin V assays performed on four GBM cell lines after 1 μM of (6a) or vehicle control.

[12] = system: GBM cell lines; assay: Glioblastoma cell proliferation / viability (MTT); assay type: cell-based, human; conditions: FIG. 30
Description: Glioblastoma cells were plated in triplicates in 96-well plates at a cell density of 10,000 cells per well and incubated with increasing concentrations of (7a) inhibitor for 72 hs. Cell viability was determined by Thiazolyl Blue Tetrazolium Bromide (MTT) assay (Sigma) according to manufacturer instructions. IC50 was determined using GraphPad software by non-linear regression analysis (log (inh) vs. normalized response).

[13] = system: GBM 612, GBM120; assay: Temozolomide IC50 in combination with (6a) in GBM cell lines; assay type: cell-based, human
Source text: FIG. 39 depicts that the IC50 values for temozolomide (TMZ) decrease 2-4 fold when used in combination (6a) in two different GBM cell lines (GBM 612, GBM120).

In the case of `COc1ccc(Nc2ncc(C#N)c(Nc3ccccc3C(N)=O)n2)cc1N1CCN(C)CC1` [(6a), 2-((5-cyano-2-((4-methoxy-3-(4-methylpiperazin-1-yl)phenyl)amino)pyrimidin-4-yl)amino)benzamide], the overall survival [1] is reported as “extended overall survival”, the tumor growth [1] is reported as “reduction in tumor growth” and the tumor volume [1] is reported as “reduced tumor volume”. For the same compound, the “migration of primary GBM cells” value [2] was “reduced migration of primary GBM cells”, the melanoma cell migration [3] was “reduced melanoma cell migration” and the “cell cycle arrest in GBM cells” value [4] was “induces G2-M arrest”. For the same compound, the IC50 [5] was about 60 nM, the “full length PARP-1 level” value [6] was “decrease full length PARP-1” and the “activity on primary human astrocytes (migration)” value [7] was “not active”. For the same compound, the “clonogenic potential after irradiation” value [8] was “lowest in the combination treatment”, the “pancreatic cancer cell migration” value [9] was “reduced” and the tolerance [10] was “well tolerated”. The “apoptosis in GBM cell lines” value [11] was “induces apoptosis”, the “proliferation and viability of primary GBM cell lines” value [12] was “impedes proliferation and viability” and the “decrease of temozolomide (TMZ) IC50 in combination with (6a)” value [13] was 2-4 fold.
